The record followed here is ChEMBL document CHEMBL1125696, “Synthesis and structure-activity relationships of deltorphin analogues” (J Med Chem, 1991).

Non-standard residues stand in square brackets, D forms with d. Residues, ends and D or L forms follow the SMILES beside them. Abu = CC[C@H](N)C(=O)O

Test [1] concerns the target T1, Mu-type opioid receptor (Rattus norvegicus, UniProt P33535). Nature of the test: Displacement of [3H]- DAGO from opioid receptor mu in rat brain membrane. It counts as cell membranes. For orientation: In a radioligand displacement assay an active substance lowers the binding of a labelled ligand.
Test [2] addresses T2, Delta-type opioid receptor (Rattus norvegicus, UniProt P33533). Nature of the test: Displacement of [3H]- DPDPE from delta opioid receptor in rat brain membrane. It counts as cell membranes.
The target in test [3] is T2, Delta-type opioid receptor. Nature of the test: Displacement of [3H]DSLET from delta opioid receptor in rat brain membrane. In kind it is cell membranes.
For test [4], the target named is T3, Mu-type opioid receptor (Cavia porcellus, UniProt P97266). Nature of the test: Inhibition of opioid receptor mu in guinea pig ileum (GPI). It counts as tissue-based.
T3 sequence (P97266 whole entry): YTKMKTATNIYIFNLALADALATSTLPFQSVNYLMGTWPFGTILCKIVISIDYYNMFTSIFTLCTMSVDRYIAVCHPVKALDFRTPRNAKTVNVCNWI
In test [5] the target is T1, Mu-type opioid receptor. In words: Opioid receptor mu 1 binding affinity in rat brain membrane preparations by the displacement of [3H]- DAGO. It counts as cell membranes.
For test [6], the target named is T4, Delta-type opioid receptor (Mus musculus, UniProt P32300). In words: Compound is tested in vitro in mouse vas deferens (MVD) assay mediated by Opioid receptor delta 1. In kind it is tissue-based.
T4 sequence (P32300 whole entry): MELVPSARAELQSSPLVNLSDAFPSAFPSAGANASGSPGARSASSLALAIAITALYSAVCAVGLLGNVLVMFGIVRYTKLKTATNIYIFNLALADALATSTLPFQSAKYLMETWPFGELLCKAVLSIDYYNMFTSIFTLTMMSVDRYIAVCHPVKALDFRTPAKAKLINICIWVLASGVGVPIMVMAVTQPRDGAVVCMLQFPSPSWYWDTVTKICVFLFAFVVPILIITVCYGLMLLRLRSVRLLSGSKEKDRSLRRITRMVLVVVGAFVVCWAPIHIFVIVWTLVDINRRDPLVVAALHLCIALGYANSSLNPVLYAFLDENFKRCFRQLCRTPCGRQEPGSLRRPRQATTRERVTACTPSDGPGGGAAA
In test [7] the target is T2, Delta-type opioid receptor. In words: Opioid receptor binding affinity in rat brain membrane preparations by the displacement of [3H]DSLET (Opioid receptor delta 1-selective radioligand). It counts as cell membranes.
Test [8] has as its target T3, Mu-type opioid receptor. In words: Compound is tested in vitro in guinea pig ileum (GPI) assay mediated by Opioid receptor mu 1. In kind it is tissue-based.
Test [9] can be described thus: (§1) IC50 ratio is GPI/MVD.
Test [10] has as its target T2, Delta-type opioid receptor. In words: Opioid receptor binding affinity in rat brain membrane preparations by the displacement of [3H]- DPDPE (Opioid receptor delta 1-selective radioligand). It counts as cell membranes.
A short description of test [11]: IC50 ratio is [3H]- DAGO/[3H]-DSLET.
Test [12] concerns the target T4, Delta-type opioid receptor. Nature of the test: In vitro opioid receptor delta mediated mouse vas deferens (MVD) assay. In kind it is tissue-based.
The nature of test [13]: as §1. In kind it is functional.

T2 sequence (P33533 whole entry): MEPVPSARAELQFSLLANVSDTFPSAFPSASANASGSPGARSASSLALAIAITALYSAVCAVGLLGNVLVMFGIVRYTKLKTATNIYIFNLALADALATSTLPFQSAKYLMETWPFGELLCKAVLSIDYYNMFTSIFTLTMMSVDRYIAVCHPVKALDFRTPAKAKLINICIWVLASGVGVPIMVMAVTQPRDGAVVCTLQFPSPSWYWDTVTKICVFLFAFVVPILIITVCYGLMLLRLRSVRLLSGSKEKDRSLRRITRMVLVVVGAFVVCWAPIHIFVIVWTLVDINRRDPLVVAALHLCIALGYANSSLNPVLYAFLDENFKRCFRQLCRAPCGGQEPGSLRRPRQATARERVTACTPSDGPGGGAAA
T1 sequence (P33535 whole entry): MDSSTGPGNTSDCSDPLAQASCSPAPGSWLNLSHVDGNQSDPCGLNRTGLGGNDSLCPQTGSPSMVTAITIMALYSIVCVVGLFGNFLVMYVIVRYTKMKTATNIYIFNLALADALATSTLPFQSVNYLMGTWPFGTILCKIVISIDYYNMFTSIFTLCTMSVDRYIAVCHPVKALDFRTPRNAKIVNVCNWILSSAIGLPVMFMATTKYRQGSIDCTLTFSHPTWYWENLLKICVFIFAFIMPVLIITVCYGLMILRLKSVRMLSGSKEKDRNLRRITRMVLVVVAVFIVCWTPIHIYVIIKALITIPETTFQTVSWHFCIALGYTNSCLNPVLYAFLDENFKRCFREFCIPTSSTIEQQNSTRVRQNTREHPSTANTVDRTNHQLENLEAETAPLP

Usually IC50 stands for the concentration at which inhibition is half-maximal. A high value points to weaker potency. As to `CC(C)[C@H](NC(=O)[C@H](CC(=O)O)NC(=O)[C@H](Cc1ccccc1)NC(=O)[C@H](C)NC(=O)[C@@H](N)Cc1ccc(O)cc1)C(=O)N[C@H](C(=O)NCC(N)=O)C(C)C`, the half-maximal inhibitory concentration (IC50) on Mu-type opioid receptor [1] was found to be 910 nM; in [2], 1.1 nM; in test [3], 1.5 nM; against Mu-type opioid receptor [4], 420 nM.

As to `CC[C@H](NC(=O)[C@@H](NC(=O)CNC(=O)[C@H](Cc1ccccc1)NC(=O)[C@H](C)NC(=O)[C@@H](N)Cc1ccc(O)cc1)C(C)C)C(=O)N[C@@H](CC(=O)O)C(N)=O` (H-YAFGV[Abu]D-NH2), the IC50 stood at 130 nM on Mu-type opioid receptor [5], 11.1 nM in test [6], 29.5 nM in test [7] and 130 nM against Mu-type opioid receptor [8]. In addition, the Ratio in [9] came to 12.

On to H-YMFDLMD-OH, for which the 50% inhibitory concentration (IC50) on Mu-type opioid receptor [5] was above 30000 nM; in [6], 380 nM; in [10] it was 55 nM; in [7], 80 nM; against Mu-type opioid receptor [8], above 15000 nM. Moreover, the Ratio in test [9] was above 40; in [11], above 375.

With H-YMFKLMD-NH2, the IC50 came to 6000 nM on Mu-type opioid receptor [5]; 1000 nM in test [6]; 380 nM in test [10]; 550 nM in [7]; 7500 nM against Mu-type opioid receptor [8]. Further, the Ratio in test [9] came to 7.5; in [11] it was 11.

`CSCC[C@H](NC(=O)[C@H](CC(C)C)NC(=O)[C@H](Cc1cnc[nH]1)NC(=O)[C@H](Cc1ccccc1)NC(=O)[C@@H](CCSC)NC(=O)[C@@H](N)Cc1ccc(O)cc1)C(=O)N[C@@H](CC(=O)O)C(N)=O` (H-Y[dM]FHLMD-NH2): the IC50 on Mu-type opioid receptor [1] was 1200 nM; in test [2] it was 6.1 nM; in [3], 9 nM; on Mu-type opioid receptor [4], 1900 nM; in [12], 1.3 nM.

Turning to `C[C@@H](NC(=O)[C@@H](N)Cc1ccc(O)cc1)C(=O)N[C@@H](Cc1ccccc1)C(=O)NCC(=O)N[C@@H](Cc1ccc(O)cc1)C(=O)N1CCC[C@H]1C(=O)N[C@@H](CO)C(N)=O` [DERMORPHIN], the IC50 on Mu-type opioid receptor [1] was determined as 3.2 nM; at Mu-type opioid receptor [4] it was 1.41 nM.

As to H-YMFHLMN-NH2 [listing 1 of 2 here], the Ratio in [13] turned out to be 30.

For `CC[C@H](NC(=O)[C@H](CCSC)NC(=O)[C@H](CC(C)C)NC(=O)[C@H](Cc1c[nH]cn1)NC(=O)[C@H](Cc1ccccc1)NC(=O)[C@H](CCSC)NC(=O)[C@@H](N)Cc1ccc(O)cc1)C(N)=O` (H-YMFHLM[Abu]-NH2), the Ratio in test [13] was determined as 200.

Take H-YMFHLMD-OH: the half-maximal inhibitory concentration (IC50) at Mu-type opioid receptor [1] was determined as 1500 nM; in test [2], 2.4 nM; in test [3], 4.5 nM; against Mu-type opioid receptor [4], 6000 nM; in test [12], 1.3 nM.

On to H-YAFQVVG-NH2, for which the IC50 at Mu-type opioid receptor [5] amounted to 280 nM; in test [6] it was 1.51 nM; in [7], 3.8 nM; against Mu-type opioid receptor [8], 280 nM. For the same compound, the values for the Ratio in test [9] and in test [11] were 185 and 73, respectively.

`CC[C@H](NC(=O)[C@H](CCSC)NC(=O)[C@H](CC(C)C)NC(=O)[C@H](Cc1cnc[nH]1)NC(=O)[C@H](Cc1ccccc1)NC(=O)[C@H](CCSC)NC(=O)[C@@H](N)Cc1ccc(O)cc1)C(N)=O` (H-YMFHLM[Abu]-NH2): the IC50 came to 360 nM at Mu-type opioid receptor [1]; 7.4 nM in [2]; 18 nM in test [3]; 300 nM at Mu-type opioid receptor [4]; 1.5 nM in test [12].

`CC(C)[C@H](NC(=O)[C@H](CCC(=O)O)NC(=O)[C@H](Cc1ccccc1)NC(=O)[C@H](C)NC(=O)[C@@H](N)Cc1ccc(O)cc1)C(=O)N[C@H](C(=O)NCC(N)=O)C(C)C`: the IC50 turned out to be 3.6 nM in [2], 3.8 nM in test [3] and 5200 nM against Mu-type opioid receptor [4].

Consider `CC(C)[C@H](NC(=O)[C@H](CCC(=O)O)NC(=O)[C@H](Cc1ccccc1)NC(=O)[C@H](C)NC(=O)[C@@H](N)Cc1ccc(O)cc1)C(=O)N[C@H](C(=O)NCC(=O)O)C(C)C` [DELTORPHINE II], for which the IC50 in [3] amounted to 184 nM; on Mu-type opioid receptor [4], 9000 nM; in test [12] it was 5.55 nM.

Consider `C[C@H](NC(=O)[C@@H](N)Cc1ccc(O)cc1)C(=O)N[C@@H](Cc1ccccc1)C(=O)N[C@@H](CC(=O)O)C(N)=O` (H-YAFD-NH2), for which the IC50 on Mu-type opioid receptor [1] came out at 100 nM; in test [3] it was 960 nM; against Mu-type opioid receptor [4], 160 nM; in [12], 1000 nM.

H-YMFGLMD-NH2: the half-maximal inhibitory concentration (IC50) was 161 nM at Mu-type opioid receptor [5]; 1.65 nM in test [6]; 8 nM in test [10]; 14 nM in test [7]; 100 nM against Mu-type opioid receptor [8]. Besides, the Ratio was 62 in [9] and 11.5 in test [11].

Turning to H-YMFFLMD-NH2, the IC50 on Mu-type opioid receptor [1] was determined as 450 nM; in test [2] it was 11 nM; in [3] it was 15 nM; against Mu-type opioid receptor [4] it was 75 nM; in test [12] it was 1.6 nM. Further, the Ratio in [13] was found to be 47.

Take H-YMFHLMN-OH: the IC50 is 660 nM at Mu-type opioid receptor [1]; 16 nM in test [2]; 22 nM in test [3]; 350 nM against Mu-type opioid receptor [4]; 9 nM in test [12]. The Ratio in [13] came out at 39.

Take H-YAFDVV-NH2: the IC50 at Mu-type opioid receptor [1] came to 700 nM; in test [3] it was 3.9 nM; on Mu-type opioid receptor [4], 320 nM; in [12] it was 7.5 nM.

In the case of H-YMFYLMD-NH2, the IC50 on Mu-type opioid receptor [1] was 158 nM; in test [2] it was 5.9 nM; in test [3], 9.1 nM; at Mu-type opioid receptor [4], 100 nM; in test [12] it was 1.02 nM. In addition, the Ratio in test [13] was 100.

For the compound H-YMFHLMN-NH2 [listing 2 of 2 here], the IC50 stood at 380 nM on Mu-type opioid receptor [1]; 18 nM in test [2]; 20 nM in test [3]; 245 nM against Mu-type opioid receptor [4]; 8 nM in [12].

On to H-YAFDV-NH2, for which the IC50 on Mu-type opioid receptor [1] was 640 nM; in test [3], 99 nM; against Mu-type opioid receptor [4], 650 nM; in [12], 220 nM.
